Data taken from US6608082B1, “Treatment of erectile dysfunction using isoquinoline compound melanocortin receptor ligands” (Lion Bioscience AG, priority 1998, dated 2003).
Like-named read-outs stand apart in the source and are kept apart here.

Molecular target: T1, MCR-1 (Homo sapiens, UniProt Q01726)
T1 construct: expressed in transfected cells; host or cells: HEK 293
Experiment: Melanocortin receptor binding assay, competition with 125I-HP 467, HEK 293 cells expressing hMCR-1
Conditions: for % Disp. of 125I-HP 467 (first of duplicate) / % Disp. of 125I-HP 467 (second of duplicate): 10 μM isoquinoline compound; for % Disp. of 125I-HP 467 (first of duplicate): HEK 293 cells expressing MCR-1, duplicate 1; for % Disp. of 125I-HP 467 (second of duplicate): HEK 293 cells expressing MCR-1, duplicate 2; for % Disp. MC-1 10 μM: displacement of 125I-HP 467 at 10 μM isoquinoline compound; for IC50: read-out: MC-1 IC50
Outline: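 Test compounds compete on intact HEK 293 cells carrying hMCR-1 (2×10^4 per tube) or hMCR-4 (4×10^3 per tube), suspended in PBS, 10% calf serum, 1 mM CaCl2.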

[1] = competition with 125I-HP 467, HEK 293 cells expressing MCR-1
[2] = inhibition of binding of 125I-HP 467, HEK 293 cells expressing MCR-1

T1 sequence (Q01726 whole entry): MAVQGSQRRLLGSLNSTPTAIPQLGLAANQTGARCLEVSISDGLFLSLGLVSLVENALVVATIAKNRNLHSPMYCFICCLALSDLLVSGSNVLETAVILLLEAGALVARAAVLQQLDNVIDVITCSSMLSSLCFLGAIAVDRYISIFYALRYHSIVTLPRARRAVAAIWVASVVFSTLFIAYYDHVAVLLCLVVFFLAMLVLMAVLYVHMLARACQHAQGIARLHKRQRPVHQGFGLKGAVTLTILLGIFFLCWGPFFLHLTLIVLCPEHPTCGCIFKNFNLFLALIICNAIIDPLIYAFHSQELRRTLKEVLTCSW

Structure (SMILES) | % Disp. MC-1 10 μM (first of duplicate) | % Disp. MC-1 10 μM (second of duplicate) | also measured
CNC(CN)CCCCN1Cc2ccccc2C(CNC2CCCCC2)C1c1ccc[nH]1 (mixture of isomers) [TRG 2405-265] |  |  | % Disp. of 125I-HP 467 (first of duplicate): 60.5%; % Disp. of 125I-HP 467 (second of duplicate): 54.1%
CNC(CN)CN1Cc2ccccc2C(CNC2CCCCC2)C1c1ccccc1Br (stereo not drawn) [TRG 2405-102] | 44.7% | 50.4% | 
CNC(CN)CN1Cc2ccccc2C(CNC2CCCCC2)C1c1ccc(S(C)(=O)=O)cc1 (stereo not drawn) [TRG 2405-177] |  |  | % Disp. of 125I-HP 467 (first of duplicate): 39%; % Disp. of 125I-HP 467 (second of duplicate): 30.7%
CNC(CN)CN1Cc2ccccc2C(CNC2CCCCC2)C1c1cccc(F)c1 (stereo not drawn) [TRG 2405-131] | 39.2% | 55.7% | 
CCNc1ccc(C2C(CNC3CCCCC3)c3ccccc3CN2CCCCC(CN)NCc2ccc(OC)cc2)cc1 (stereo not drawn) [TRG 2411-56] |  |  | IC50 [1]: 130 nM
CCNC(CN)CCCCN1Cc2ccccc2C(CNCCc2ccccc2)C1c1ccc(-c2ccccc2)cc1 (stereo not drawn) [TRG 2411-2] |  |  | IC50 [1]: 550 nM
CNC(CN)CCCN1Cc2ccccc2C(CN)C1c1ccc(-c2ccccc2)cc1 (stereo not drawn) [TRG 2413-8] |  |  | IC50 [2]: 1840 nM
NCCN1Cc2ccccc2C(CNC2CCCCC2)C1c1ccccc1O (stereo not drawn) [TRG 2405-2] | 42.9% | 40.8% | 
CCCCNc1ccc(C2C(CNCCc3ccccc3)c3ccccc3CN2CCCC(CN)NCCc2ccc3ccccc3c2)cc1 (stereo not drawn) [TRG 2411-199] |  |  | IC50 [2]: 170 nM
NCCN1Cc2ccccc2C(CNC2CCCCC2)C1c1cccc(Oc2ccc(Cl)c(Cl)c2)c1 (stereo not drawn) [TRG 2405-33] | 54.2% | 48.7% | 
CNC(CN)CCCCN1Cc2ccccc2C(CNC2CCCCC2)C1c1ccc(S(C)(=O)=O)cc1 (mixture of isomers) [TRG 2405-267] |  |  | % Disp. of 125I-HP 467 (first of duplicate): 21.5%; % Disp. of 125I-HP 467 (second of duplicate): 8.4%
CNC(CN)CN1Cc2ccccc2C(CNC2CCCCC2)C1c1ccc(Cl)c(Cl)c1 (stereo not drawn) [TRG 2405-116] | 62.3% | 63% | 
CNC(CN)CN1Cc2ccccc2C(CNC2CCCCC2)C1c1cc(C)c(O)c(C)c1 (stereo not drawn) [TRG 2405-122] | 17.6% | 40.7% | 
CCCCNc1ccc(C2C(CNCCc3ccccc3)c3ccccc3CN2CCCCC(N)CN)cc1 (stereo not drawn) [TRG 2411-72] |  |  | IC50 [1]: 250 nM
CNC(CN)CN1Cc2ccccc2C(CNC2CCCCC2)C1c1cccc(F)c1F (stereo not drawn) [TRG 2405-99] | 34.7% | 54.2% | 
CNC(CN)CN1Cc2ccccc2C(CNC2CCCCC2)C1c1ccc(C(C)C)cc1 (stereo not drawn) [TRG 2405-157] | 56.4% | 56.1% | 
CCCCNc1ccc(C2C(CNC3CCCCC3)c3ccccc3CN2CCCCC(CN)N2CCCC2)cc1 (stereo not drawn) [TRG 2411-89] |  |  | IC50 [1]: 60 nM
CNC(CN)CN1Cc2ccccc2C(CNC2CCCCC2)C1c1ccc(OCCCN(C)C)cc1 (stereo not drawn) [TRG 2405-144] | 29.6% | 41.7% | 
CCNc1ccc(C2C(CN)c3ccccc3CN2CCCCC(CN)NCCN)cc1 (stereo not drawn) [TRG 2411-71] |  |  | IC50 [1]: 390 nM
CCCOc1ccc(C2C(CNCCc3ccccc3)c3ccccc3CN2CCCCC(CN)NCCc2ccccc2)cc1 (stereo not drawn) [TRG 2412-8] |  |  | IC50 [2]: 830 nM
NCCN1Cc2ccccc2C(CNC2CCCCC2)C1c1ccc(F)cc1 (stereo not drawn) [TRG 2405-65] | 49.6% | 33.9% | 
COCCNC(CN)CCCCN1Cc2ccccc2C(CNCCc2ccccc2)C1c1ccc(-c2ccccc2)cc1 (stereo not drawn) [TRG 2411-10] |  |  | IC50 [1]: 1100 nM
NCC(CCCN1Cc2ccccc2C(CNC2CCCCC2)C1c1ccc(-c2ccccc2)cc1)NCc1ccccc1 (stereo not drawn) [TRG 2411-135] |  |  | IC50 [1]: 1980 nM
CC(C)c1ccc(C2C(CNC3CCCCC3)c3ccccc3CN2CCN)cc1 (stereo not drawn) [TRG 2405-67] | 54% | 51.3% | 
CCNc1ccc(C2C(CNC3CCCCC3)c3ccccc3CN2CCN)cc1 (stereo not drawn) [TRG 2405-59] | 34.3% | 40.1% | 
CCCCNc1ccc(C2C(CNC3CCCCC3)c3ccccc3CN2CCCC(CN)NCc2ccc(Cl)cc2)cc1 (stereo not drawn) [TRG 2411-211] |  |  | IC50 [2]: 100 nM
CCCCCNc1ccc(C2C(CNCCc3ccccc3)c3ccccc3CN2CCCCC(CN)NCCc2ccccc2)cc1 (stereo not drawn) [TRG 2412-2] |  |  | IC50 [2]: 470 nM

Structure (SMILES) | % Disp. MC-1 10 μM (first of duplicate) | % Disp. MC-1 10 μM (second of duplicate) | also measured
CNC(CN)CN1Cc2ccccc2C(CNC2CCCCC2)C1c1ccc(OC)c(S(=O)(=O)O)c1 (stereo not drawn) [TRG 2405-178] |  |  | % Disp. of 125I-HP 467 (first of duplicate): 25%; % Disp. of 125I-HP 467 (second of duplicate): 22.1%
Cc1ccc(C2C(CNC3CCCCC3)c3ccccc3CN2CCN)cc1 (stereo not drawn) [TRG 2405-69] | 49.8% | 49% | 
CNC(CN)CN1Cc2ccccc2C(CNC2CCCCC2)C1c1cc(OC)cc(OC)c1 (stereo not drawn) [TRG 2405-121] | 35.3% | 38.7% | 
NC[C@H](CCCCN1Cc2ccccc2C(CNCCc2ccccc2)C1c1ccc(-c2ccccc2)cc1)NCCc1ccccc1 (stereo partly drawn) [TRG 2411-3] |  |  | IC50 [1]: 880 nM
NCCN1Cc2ccccc2C(CNC2CCCCC2)C1c1ccc(-c2ccccc2)cc1 (stereo not drawn) [TRG 2405-61] | 54.7% | 61.9% | 
NCCN1Cc2ccccc2C(CNC2CCCCC2)C1c1ccc(Oc2ccccc2)cc1 (stereo not drawn) [TRG 2405-72] | 50.1% | 57.7% | 
CNC(CN)CN1Cc2ccccc2C(CNC2CCCCC2)C1c1cccc(Oc2ccccc2)c1 (stereo not drawn) [TRG 2405-140] | 67.6% | 67.8% | 
CCNc1ccc(C2C(CNC3CCCCC3)c3ccccc3CN2CC(CN)NC)cc1 (stereo not drawn) [TRG 2405-149] | 30.1% | 52.3% | 
CNCCNC(CN)CCCCN1Cc2ccccc2C(CNCCc2ccccc2)C1c1ccc(-c2ccccc2)cc1 (stereo not drawn) [TRG 2413-1] |  |  | IC50 [2]: 440 nM
CNC(CN)CCCCN1Cc2ccccc2C(CNC2CCCCC2)C1c1cccc(F)c1 (stereo not drawn) [TRG 2405-221] |  |  | % Disp. of 125I-HP 467 (first of duplicate): 65.2%; % Disp. of 125I-HP 467 (second of duplicate): 62.7%
CCCCNc1ccc(C2C(CN)c3ccccc3CN2CCCC(CN)NC)cc1 (stereo not drawn) [TRG 2411-217] |  |  | IC50 [2]: 90 nM
CNC(CN)CCCCN1Cc2ccccc2C(CNC2CCCCC2)C1c1cccc(C)n1 (stereo not drawn) [TRG 2405-261] |  |  | % Disp. of 125I-HP 467 (first of duplicate): 45.9%; % Disp. of 125I-HP 467 (second of duplicate): 47.8%
NCCN1Cc2ccccc2C(CNC2CCCCC2)C1c1ccc(C(F)(F)F)cc1 (stereo not drawn) [TRG 2405-58] | 56.3% | 46.6% | 
CNC(CN)CN1Cc2ccccc2C(CNC2CCCCC2)C1c1ccc(Br)o1 (stereo not drawn) [TRG 2405-179] |  |  | % Disp. of 125I-HP 467 (first of duplicate): 61.1%; % Disp. of 125I-HP 467 (second of duplicate): 56.8%
CNC(CN)CN1Cc2ccccc2C(CNC2CCCCC2)C1c1ccc(C)cc1 (stereo not drawn) [TRG 2405-159] | 51% | 53.5% | 
CNC(CN)CN1Cc2ccccc2C(CNC2CCCCC2)C1c1ccc([N+](=O)[O-])cc1 (mixture of isomers) [TRG 2405-161] | 58.4% | 59.1% | 
COc1cccc(C2C(CNC3CCCCC3)c3ccccc3CN2CCN)c1 (stereo not drawn) [TRG 2405-45] | 40.6% | 31.9% | 
CCCCNc1ccc(C2C(CN)c3ccccc3CN2CCCCC(CN)NC)cc1 (stereo not drawn) [TRG 2411-100] |  |  | IC50 [1]: 130 nM
CNC(CN)CCCCN1Cc2ccccc2C(CNC2CCCCC2)C1c1cccc(CN)c1 (stereo not drawn) [TRG 2405-219] |  |  | % Disp. of 125I-HP 467 (first of duplicate): 43.5%; % Disp. of 125I-HP 467 (second of duplicate): 42.9%
CNC(CN)CCCCN1Cc2ccccc2C(CNC2CCCCC2)C1c1ccccc1CN (stereo not drawn) [TRG 2405-195] |  |  | % Disp. of 125I-HP 467 (first of duplicate): 44.7%; % Disp. of 125I-HP 467 (second of duplicate): 35.7%
CCOc1ccc(C2C(CNCCc3ccccc3)c3ccccc3CN2CCCCC(CN)NCc2ccccc2)cc1 (stereo not drawn) [TRG 2412-6] |  |  | IC50 [2]: 590 nM
CCNc1ccc(C2C(CN)c3ccccc3CN2CCCC(N)CN)cc1 (mixture of isomers) [TRG 2411-174] |  |  | IC50 [2]: 480 nM
CCCCNc1ccc(C2C(CN)c3ccccc3CN2CCCC(CN)NCCc2ccc3ccccc3c2)cc1 (stereo not drawn) [TRG 2409-227] |  |  | IC50 [1]: 170 nM
CNC(CN)CCCCN1Cc2ccccc2C(CNC2CCCCC2)C1c1cccc([N+](=O)[O-])c1 (stereo not drawn) [TRG 2405-229] |  |  | % Disp. of 125I-HP 467 (first of duplicate): 58.6%; % Disp. of 125I-HP 467 (second of duplicate): 48.8%
NCC(CCCCN1Cc2ccccc2C(CNCCc2ccc(Oc3ccccc3)cc2)C1c1cc(C(F)(F)F)cc(C(F)(F)F)c1)NCc1ccc(Br)cc1 (stereo not drawn) [TRG 2421-28] |  |  | IC50 [2]: 15700 nM
CCCCNc1ccc(C2C(CN)c3ccccc3CN2CCCC(CN)NCCN)cc1 (stereo not drawn) [TRG 2409-229] |  |  | IC50 [1]: 230 nM
CNC(CN)CCCCN1Cc2ccccc2C(CNC2CCCCC2)C1c1ccc(C(C)C)cc1 (stereo not drawn) [TRG 2405-247] |  |  | % Disp. of 125I-HP 467 (first of duplicate): 83%; % Disp. of 125I-HP 467 (second of duplicate): 85.3%
